The structures appear in SMILES notation. pEC50: −log10 of the molar value. *1 amine or outer side, *2 acyl side, *3 side chain or, on linkers, in order; H or OH if unused. Where a SMILES comes first, the peptide text is derived from it. Side-chain parts run from the residue outwards. [ ]: non-standard residue; d: D form. The star is where a group is joined. C16 diacid = O=C(O)CCCCCCCCCCCCCCC(=O)*; γGlu = O=C(O)[C@H](CCC(=O)[*:2])N[*:1]; αMeL = CC(C)C[C@](C)(N)C(=O)O; Ac6c = NC1(C(=O)O)CCCCC1

One test addresses T1, human CRF2a receptor (Homo sapiens, UniProt Q13324).
T1 construct: expressed in transfected cells; host or cells: TeloHEAC cells
T1 sequence (Q13324 1-411): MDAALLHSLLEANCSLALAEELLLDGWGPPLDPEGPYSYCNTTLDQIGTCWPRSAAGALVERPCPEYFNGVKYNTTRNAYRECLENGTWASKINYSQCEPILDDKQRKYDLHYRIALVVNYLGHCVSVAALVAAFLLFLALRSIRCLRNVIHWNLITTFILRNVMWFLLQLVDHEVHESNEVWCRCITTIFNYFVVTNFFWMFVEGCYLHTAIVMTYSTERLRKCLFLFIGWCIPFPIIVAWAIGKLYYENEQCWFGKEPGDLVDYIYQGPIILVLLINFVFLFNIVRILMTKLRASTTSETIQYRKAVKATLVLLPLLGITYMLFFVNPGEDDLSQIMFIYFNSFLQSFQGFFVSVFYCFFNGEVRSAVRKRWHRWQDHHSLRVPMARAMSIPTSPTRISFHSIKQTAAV
Briefly: Activity at human CRF2a receptor, cAMP functional assay in TeloHEAC cells. To be noted: TeloHEAC cells stably expressing human CRF2a receptor, relative to urocortin 2 (100 nM = 100%). In kind it is cell-based. Summed up: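 TeloHEAC cells stably expressing human CRF2a (10000 cells/well, suspended in HBSS/20 mM HEPES with 2 mM IBMX) were exposed to compounds for 30 min at 37 °C. cAMP was read as the 665/620 nm fluorescence ratio after 1 h at room temperature. EC50 was derived relative to 100 nM urocortin 2, set as 100%.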

The target in another test is T2, CFR1R receptor (Homo sapiens, UniProt P34998).
T2 construct: host or cells: CHO-K1 (clone 2)
T2 sequence (P34998 24-415): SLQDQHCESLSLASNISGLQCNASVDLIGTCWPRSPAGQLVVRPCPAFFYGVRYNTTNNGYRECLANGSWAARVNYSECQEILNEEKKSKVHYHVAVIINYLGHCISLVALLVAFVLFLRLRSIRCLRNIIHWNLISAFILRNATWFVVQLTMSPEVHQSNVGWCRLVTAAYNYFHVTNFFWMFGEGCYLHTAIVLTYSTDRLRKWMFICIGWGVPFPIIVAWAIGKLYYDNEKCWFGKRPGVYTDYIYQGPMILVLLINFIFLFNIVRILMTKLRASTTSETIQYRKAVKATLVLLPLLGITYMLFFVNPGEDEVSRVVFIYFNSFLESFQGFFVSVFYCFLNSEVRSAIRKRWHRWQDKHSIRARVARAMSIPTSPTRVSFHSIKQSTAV
Put plainly: Activity at anti-target CFR1R receptor, cAMP assay in CRF1R-overexpression CHO-K1 cells. To be noted: 100% = Sauvagine at 100 nM; for pEC50: cAMP. Type of test: cell-based. Summed up: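 cAMP readout in CRF1R-overexpressing CHO-K1 cells (clone 2), run as for the TeloHAEC assay at 4000 cells/well final. Cells came from cryopreserved banks. Sauvagine at 100 nM defined 100% activation.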
Background: Cyclic AMP is a second messenger, typically raised through Gs and lowered through Gi signalling.

Usually pEC50 stands for −log10 of the EC50, conventionally taken in molar units. `CC[C@H](C)[C@H](NC(C)=O)C(=O)N[C@H](C(=O)N[C@@H](CC(C)C)C(=O)N[C@@H](CO)C(=O)N[C@@H](CC(C)C)C(=O)N[C@@H](CC(=O)O)C(=O)N[C@H](C(=O)N1CCC[C@H]1C(=O)N[C@H](C(=O)N[C@@H](CCCCN)C(=O)N[C@@](C)(CC(C)C)C(=O)N[C@@H](CCCCNC(=O)CC[C@H](NC(=O)CCCCCCCCCCCCCCC(=O)O)C(=O)O)C(=O)N[C@@H](CCCCN)C(=O)N[C@H](C(=O)N[C@@H](CC(C)C)C(=O)N[C@@H](CC(C)C)C(=O)N[C@@H](CCC(=O)O)C(=O)N[C@@H](CCC(N)=O)C(=O)N[C@@H](CCC(=O)O)C(=O)N[C@@H](CCCCN)C(=O)N[C@@H](CCC(N)=O)C(=O)N[C@@H](CCCCN)C(=O)N[C@@H](CCCCN)C(=O)N[C@@H](CCC(N)=O)C(=O)N[C@@H](CCCNC(=N)N)C(=O)N[C@@H](CCC(=O)O)C(=O)N[C@@H](CCC(N)=O)C(=O)N[C@@H](C)C(=O)N[C@@H](CCC(=O)O)C(=O)N[C@H](C(=O)N[C@@H](CC(N)=O)C(=O)N[C@H](C(=O)N[C@@H](CCC(N)=O)C(=O)N[C@H](C(=O)N[C@@H](CC(C)C)C(=O)N[C@@H](C)C(=O)N[C@@H](CCC(N)=O)C(=O)N[C@H](C(N)=O)C(C)C)[C@@H](C)CC)C(C)C)[C@@H](C)O)[C@@H](C)CC)[C@@H](C)CC)C(C)C)C(C)C` [compound 49] (Ac-IVLSLDVPIK[αMeL]K([γGlu-C16 diacid])KILLEQEKQKKQREQAETNVQILAQV-NH2) showed a pEC50 at human CRF2a receptor of 9.04. Further, at CFR1R receptor, the “Emax (% I)” value was −3 % I and the negative-log EC50 (pEC50) is less than 6.60.
`CC[C@H](C)[C@H](NC(C)=O)C(=O)N[C@H](C(=O)N[C@@H](CC(C)C)C(=O)N[C@@H](CO)C(=O)N[C@@H](CC(C)C)C(=O)N[C@@H](CC(=O)O)C(=O)N[C@@H](C(=O)N1CCC[C@H]1C(=O)N[C@H](C(=O)N[C@@H](CCCCN)C(=O)N[C@@](C)(CC(C)C)C(=O)N[C@@H](CCCCNC(=O)CC[C@H](NC(=O)CCCCCCCCCCCCCCC(=O)O)C(=O)O)C(=O)N[C@@H](CCCCN)C(=O)N[C@H](C(=O)N[C@@H](CC(C)C)C(=O)N[C@@H](CC(C)C)C(=O)N[C@@H](CCC(=O)O)C(=O)N[C@@H](CCC(N)=O)C(=O)N[C@@H](CCC(=O)O)C(=O)N[C@@H](CCCCN)C(=O)N[C@@H](CCC(N)=O)C(=O)N[C@@H](CCCCN)C(=O)N[C@@H](CCCCN)C(=O)N[C@@H](CCC(N)=O)C(=O)N[C@@H](CCCNC(=N)N)C(=O)N[C@@H](CCC(=O)O)C(=O)N[C@@H](CCC(N)=O)C(=O)N[C@@H](C)C(=O)N[C@@H](CCC(=O)O)C(=O)N[C@H](C(=O)N[C@@H](CC(N)=O)C(=O)N[C@H](C(=O)N[C@@H](CCC(N)=O)C(=O)N[C@H](C(=O)N[C@@H](CC(C)C)C(=O)N[C@@H](C)C(=O)N[C@@H](CCC(N)=O)C(=O)N[C@H](C(N)=O)C(C)C)[C@@H](C)CC)C(C)C)[C@@H](C)O)[C@@H](C)CC)[C@@H](C)CC)C(C)C)C(C)C` [compound 50] (Ac-IVLSLD[dV]PIK[αMeL]K([γGlu-C16 diacid])KILLEQEKQKKQREQAETNVQILAQV-NH2) had a negative-log EC50 (pEC50) on human CRF2a receptor of 9.59. At CFR1R receptor, the “Emax (% I)” value is 9 % I and the pEC50 is less than 6.60.
With `CC[C@H](C)[C@H](NC(C)=O)C(=O)N[C@H](C(=O)N[C@@H](CC(C)C)C(=O)N[C@@H](CO)C(=O)N[C@@H](CC(C)C)C(=O)N[C@@H](CC(=O)O)C(=O)N[C@@H](C(=O)N1CCC[C@H]1C(=O)N[C@H](C(=O)N[C@@H](CCCCN)C(=O)N[C@@](C)(CC(C)C)C(=O)N[C@@H](CCCCNC(=O)CC[C@H](NC(=O)CCCCCCCCCCCCCCC(=O)O)C(=O)O)C(=O)N[C@@H](CCCCN)C(=O)N[C@H](C(=O)N[C@@H](CC(C)C)C(=O)N[C@@H](CC(C)C)C(=O)N[C@@H](CCC(=O)O)C(=O)N[C@@H](CCC(N)=O)C(=O)N[C@@H](CCC(=O)O)C(=O)N[C@@H](CCCCN)C(=O)N[C@@H](CCC(N)=O)C(=O)N[C@@H](CCCCN)C(=O)N[C@@H](CCCCN)C(=O)N[C@@H](CCC(N)=O)C(=O)N[C@@H](CCCNC(=N)N)C(=O)N[C@@H](CCC(=O)O)C(=O)N[C@@H](CCC(N)=O)C(=O)N[C@@H](C)C(=O)N[C@@H](CCC(=O)O)C(=O)N[C@H](C(=O)N[C@@H](CC(=O)O)C(=O)N[C@@H](CCCCN)C(=O)N[C@@H](CCC(N)=O)C(=O)N[C@H](C(=O)N[C@@H](CC(C)C)C(=O)N[C@@H](C)C(=O)N[C@@H](CCC(N)=O)C(=O)N[C@H](C(N)=O)C(C)C)[C@@H](C)CC)[C@@H](C)O)[C@@H](C)CC)[C@@H](C)CC)C(C)C)C(C)C` [compound 53] (Ac-IVLSLD[dV]PIK[αMeL]K([γGlu-C16 diacid])KILLEQEKQKKQREQAETDKQILAQV-NH2), the pEC50 at human CRF2a receptor is 8.09. Further, on CFR1R receptor, the “Emax (% I)” value was determined as 5 % I and the pEC50 is less than 6.60.
On the same counts, the results for `CC[C@H](C)[C@H](NC(C)=O)C(=O)N[C@H](C(=O)N[C@@H](CC(C)C)C(=O)N[C@@H](CO)C(=O)N[C@@H](CC(C)C)C(=O)N[C@@H](CC(=O)O)C(=O)N[C@@H](C(=O)N1CCC[C@H]1C(=O)N[C@H](C(=O)N[C@@H](CCCCN)C(=O)N[C@@H](CC(C)C)C(=O)N[C@@H](CCCCNC(=O)CC[C@H](NC(=O)CCCCCCCCCCCCCCC(=O)O)C(=O)O)C(=O)N[C@@H](CCCCN)C(=O)N[C@H](C(=O)N[C@@H](CC(C)C)C(=O)N[C@@H](CC(C)C)C(=O)N[C@@H](CCC(=O)O)C(=O)N[C@@H](CCC(N)=O)C(=O)N[C@@H](CCC(=O)O)C(=O)N[C@@H](CCCCN)C(=O)N[C@@H](CCC(N)=O)C(=O)N[C@@H](CCCCN)C(=O)N[C@@H](CCCCN)C(=O)N[C@@H](CCC(N)=O)C(=O)N[C@@H](CCCNC(=N)N)C(=O)N[C@@H](CCC(=O)O)C(=O)N[C@@H](CCC(N)=O)C(=O)N[C@@H](C)C(=O)N[C@@H](CCC(=O)O)C(=O)N[C@H](C(=O)N[C@@H](CC(N)=O)C(=O)N[C@@H](CCC(=O)O)C(=O)N[C@@H](CCC(N)=O)C(=O)N[C@H](C(=O)N[C@@H](CC(C)C)C(=O)N[C@@H](C)C(=O)N[C@@H](CCC(N)=O)C(=O)N[C@H](C(N)=O)C(C)C)[C@@H](C)CC)[C@@H](C)O)[C@@H](C)CC)[C@@H](C)CC)C(C)C)C(C)C` [compound 56] (Ac-IVLSLD[dV]PIKLK([γGlu-C16 diacid])KILLEQEKQKKQREQAETNEQILAQV-NH2) are 9.52, 3 % I and less than 6.60.
Consider `CC[C@H](C)[C@H](NC(C)=O)C(=O)N[C@H](C(=O)N[C@@H](CC(C)C)C(=O)N[C@@H](CO)C(=O)N[C@@H](CC(C)C)C(=O)N[C@@H](CC(=O)O)C(=O)N[C@@H](C(=O)N1CCC[C@H]1C(=O)N[C@H](C(=O)N[C@@H](CCCCN)C(=O)N[C@@H](CC(C)C)C(=O)N[C@@H](CCCCNC(=O)CC[C@H](NC(=O)CCCCCCCCCCCCCCC(=O)O)C(=O)O)C(=O)N[C@@H](CCCCN)C(=O)N[C@H](C(=O)N[C@@H](CC(C)C)C(=O)N[C@@H](CC(C)C)C(=O)N[C@@H](CCC(=O)O)C(=O)N[C@@H](CCC(N)=O)C(=O)N[C@@H](CCC(=O)O)C(=O)N[C@@H](CCCCN)C(=O)N[C@@H](CCC(N)=O)C(=O)N[C@@H](CCCCN)C(=O)N[C@@H](CCCCN)C(=O)N[C@@H](CCC(N)=O)C(=O)N[C@@H](CCCNC(=N)N)C(=O)N[C@@H](CCC(=O)O)C(=O)N[C@@H](CCC(N)=O)C(=O)N[C@@H](C)C(=O)N[C@@H](CCC(=O)O)C(=O)N[C@H](C(=O)N[C@@H](CC(N)=O)C(=O)NC1(C(=O)N[C@@H](CCC(N)=O)C(=O)N[C@H](C(=O)N[C@@H](CC(C)C)C(=O)N[C@@H](C)C(=O)N[C@@H](CCC(N)=O)C(=O)N[C@H](C(N)=O)C(C)C)[C@@H](C)CC)CCCCC1)[C@@H](C)O)[C@@H](C)CC)[C@@H](C)CC)C(C)C)C(C)C` [compound 59] (Ac-IVLSLD[dV]PIKLK([γGlu-C16 diacid])KILLEQEKQKKQREQAETN[Ac6c]QILAQV-NH2), for which the negative-log EC50 (pEC50) was 9.09 on human CRF2a receptor and less than 6.60 on CFR1R receptor. Besides, the “Emax (% I)” value on CFR1R receptor was determined as 9 % I.

Source of the values: US20260001928A1 (CORTERIA PHARMACEUTICALS, priority 2022, published 2026).
